Measured values from publication PMC2492869 (BMC Microbiology, 2008).

biological target: T1, Brucella suis urease (ure-1 operon) (Brucella suis, UniProt Q8G2P8); test: biochemical
T1 construct: gene ureC1
T1 sequence (Q8G2P8 whole entry, looked up): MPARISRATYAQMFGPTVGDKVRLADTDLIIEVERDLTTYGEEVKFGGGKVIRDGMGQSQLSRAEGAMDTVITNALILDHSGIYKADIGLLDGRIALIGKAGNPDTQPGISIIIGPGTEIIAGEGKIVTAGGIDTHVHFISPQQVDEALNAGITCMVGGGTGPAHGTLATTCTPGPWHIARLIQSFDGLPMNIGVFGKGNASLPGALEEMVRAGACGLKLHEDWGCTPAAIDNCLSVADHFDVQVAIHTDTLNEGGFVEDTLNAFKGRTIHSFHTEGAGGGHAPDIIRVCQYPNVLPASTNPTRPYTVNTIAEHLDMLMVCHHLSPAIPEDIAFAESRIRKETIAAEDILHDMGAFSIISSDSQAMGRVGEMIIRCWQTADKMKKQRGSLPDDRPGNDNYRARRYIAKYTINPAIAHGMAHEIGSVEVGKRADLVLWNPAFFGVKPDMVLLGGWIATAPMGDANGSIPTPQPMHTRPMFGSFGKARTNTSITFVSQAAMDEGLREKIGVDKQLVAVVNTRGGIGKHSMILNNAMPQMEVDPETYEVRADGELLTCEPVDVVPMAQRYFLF

Row | SMILES | Ki
1 | CC(=O)NO [acetohydroxamic acid] | 770 ± 60 µM
2 | NC(=O)NO [hydroxyurea] | 1040 ± 310 µM
3 | NC(N)=S [thiourea] | 26100 ± 2300 µM
